Patent US20210196654A1, “METHOD OF TREATING CONDITIONS” (Clexio Biosciences Ltd., priority 2019, published 2021)

Columns and labels:
[1] = tested on: healthy male and female subjects; test: Single dose crossover study in healthy volunteers, adverse events; assay type: in vivo, human
Source text: A total of 128 TEAEs (treatment-emergent adverse event) were reported by 15 of 16 (94%) subjects of which 79 TEAEs reported by 14 of 16 (88%) subjects were to be related to the study drug. Overall, a total of 14 of 128 TEAEs reported by 4 (25%) subjects were of moderate severity and 114 of 128 TEAEs reported by 15 (94%) subjects were of mild severity. […] The most frequently occurring adverse events (reported more than twice) were headache, dizziness, hypokinesia, feeling abnormal, fatigue, euphoric mood inappropriate affect, nausea and hyperhidrosis. Table 4 presents the frequency of the most frequently reported related TEAEs as a percentage of the subjects that experienced an adverse effect per treatment.

[2] = tested on: liver of Crl:CD(SD) rats; test: In vivo single cell gel electrophoresis (comet) assay in liver; conditions: for lower benchmark dose (BMDL50): single slide median Tail Intensity, PROAST
[3] = tested on: male Sprague Dawley rats; test: 7-day forced swim test; assay type: in vivo, rat; conditions: for decrease in immobility time: 7 daily doses, test 30 min after dosing
Description: Groups of, 6-7 week old, male Sprague Dawley rats were administered esketamine by intraperitoneal injection and their behavioral despair assessed by a forced swim test. The animals, in cohorts of 10, were administered either a single dose of 15mg/kg esketamine, 7 daily doses of either 7.5 or 15 mg/kg esketamine or a vehicle control, and the test performed 30 minutes after dosing. Statistical evaluation was performed using an ordinary One-Way ANOVA, t Test and an Uncorrected Fisher's LSD comparisons test.

[4] = Repeated dose 28 day toxicokinetics; conditions: for AUC(0-inf) / AUC(0-t) / Cmax / half-life / Tmax: Sprague Dawley, rat, in vivo, po; for AUC(0-t): AUC0-t
Description: The objective of the study was to assess the potential toxicity, neurobehavioral effects, and toxicokinetics (TK) of esketamine when administered orally, via gavage, to Sprague Dawley rats for 28 days and to evaluate recovery during a 14-day drug-free period. Fifty male and 50 female rats were randomized into 4 groups (15/sex/Groups 1 and 4; 10/sex/Groups 2 and 3). Esketamine was administered via oral gavage once daily for 28 consecutive days to males at 0 (vehicle control), 6, 10 or 30 mg/kg/day and females at 0 (vehicle control), 2, 10 or 20 mg/kg/day in a dose volume of 10 mL/kg. Animals were observed until euthanized and necropsied on Day 29 (10/sex/group) or 43 (5/sex from Groups 1 and 4). Toxicity was evaluated based on mortality, clinical observations, body weights, food consumption, ophthalmology, motor activity, functional observational battery, clinical pathology (clinical chemistry, hematology, coagulation and urinalysis), organ weights, anatomic (macroscopic or microscopic) pathology. Toxicokinetic animals (3/sex/Group 1; 6/sex/Groups 2, 3, and 4) were similarly dosed and bled on Day 1 and during Week 4 for toxicokinetic analysis.

[5] = female, 2 mg/kg, Day 1, female rats, 2 mg/kg oral
[6] = female, 2 mg/kg, Day 28, female rats, 2 mg/kg oral
[7] = female, 10 mg/kg, Day 1, female rats, 10 mg/kg oral
[8] = female, 10 mg/kg, Day 28, female rats, 10 mg/kg oral
[9] = female, 20 mg/kg, Day 1, female rats, 20 mg/kg oral
[10] = female, 20 mg/kg, Day 28, female rats, 20 mg/kg oral
[11] = male, 6 mg/kg, Day 1, male rats, 6 mg/kg oral
[12] = male, 6 mg/kg, Day 28, male rats, 6 mg/kg oral
[13] = male, 10 mg/kg, Day 1, male rats, 10 mg/kg oral
[14] = male, 10 mg/kg, Day 28, male rats, 10 mg/kg oral
[15] = male, 30 mg/kg, Day 1, male rats, 30 mg/kg oral
[16] = male, 30 mg/kg, Day 28, male rats, 30 mg/kg oral

CN[C@]1(c2ccccc2Cl)CCCCC1=O [esketamine, (2S)-2-(2-Chlorophenyl)-2-(methylamino) cyclohexanone]
Dizziness, related TEAE, percentage of subjects ([1]; 0.3 mg/kg iv): 6% | Euphoric mood, related TEAE, percentage of subjects ([1]; 0.3 mg/kg iv): 19% | Fatigue, related TEAE, percentage of subjects ([1]; 0.3 mg/kg iv): 6% | Feeling abnormal, related TEAE, percentage of subjects ([1]; 0.3 mg/kg iv): 13% | Headache, related TEAE, percentage of subjects ([1]; 0.3 mg/kg iv): 19% | Hypokinesia, related TEAE, percentage of subjects ([1]; 0.3 mg/kg iv): 6% | Inappropriate affect, related TEAE, percentage of subjects ([1]; 0.3 mg/kg iv): 6% | Nausea, related TEAE, percentage of subjects ([1]; 0.3 mg/kg iv): 6% | Feeling abnormal, related TEAE, percentage of subjects ([1]; 20 mg oral solution): 19% | Headache, related TEAE, percentage of subjects ([1]; 20 mg oral solution): 19% | Inappropriate affect, related TEAE, percentage of subjects ([1]; 20 mg oral solution): 6% | Dizziness, related TEAE, percentage of subjects ([1]; 20 mg oral tablet): 13% | Fatigue, related TEAE, percentage of subjects ([1]; 20 mg oral tablet): 7% | Feeling abnormal, related TEAE, percentage of subjects ([1]; 20 mg oral tablet): 7% | Hyperhidrosis, related TEAE, percentage of subjects ([1]; 20 mg oral tablet): 7% | Dizziness, related TEAE, percentage of subjects ([1]; 100 mg oral tablet): 13% | Euphoric mood, related TEAE, percentage of subjects ([1]; 100 mg oral tablet): 13% | Feeling abnormal, related TEAE, percentage of subjects ([1]; 100 mg oral tablet): 20% | Headache, related TEAE, percentage of subjects ([1]; 100 mg oral tablet): 13% | Hyperhidrosis, related TEAE, percentage of subjects ([1]; 100 mg oral tablet): 7% | Hypokinesia, related TEAE, percentage of subjects ([1]; 100 mg oral tablet): 13% | Inappropriate affect, related TEAE, percentage of subjects ([1]; 100 mg oral tablet): 7% | Nausea, related TEAE, percentage of subjects ([1]; 100 mg oral tablet): 20% | subjects reporting TEAEs of moderate severity ([1]; 4 subjects): 25% | subjects reporting TEAEs related to the study drug ([1]; 14 of 16 subjects): 88% | subjects reporting TEAEs ([1]; 15 of 16 subjects): 94% | subjects reporting TEAEs of mild severity ([1]; 15 subjects): 94% | tolerability ([1]; 15 subjects who completed the study): generally well tolerated | TEAEs related to the study drug ([1]; all treatments): 79 | severe TEAEs or SAEs ([1]; all treatments): No severe TEAEs or SAEs were reported | total TEAEs reported ([1]; all treatments, 16 subjects): 128 | TEAEs of mild severity ([1]; of 128 TEAEs): 114 | TEAEs of moderate severity ([1]; of 128 TEAEs): 14 | macroscopic examination ([2]; after 3 doses): no test item related lesions | group mean and median % TI values vs historical control range ([2]; female rats, 25 and 50 mg/kg/day): outside of the current vehicle historical control range | median % TI in liver vs vehicle control ([2]; female rats, 25 and 50 mg/kg/day oral, 3 doses, p<0.001): Statistically significant increases | lower benchmark dose (BMDL50) ([2]; female rats): 9.83 mg/kg/day | DNA strand breaks in the liver, conclusion ([2]; male and female rats, oral gavage): evidence of causing an increase in DNA strand breaks | Hedgehog cells in liver ([2]; male or female rats, any dose level): No Hedgehog cells were observed | group mean and median % TI values vs historical control range ([2]; male rats, 75 mg/kg/day): outside of the current vehicle historical control range | median % tail intensity (TI) in liver vs vehicle control ([2]; male rats, 75 mg/kg/day oral, 3 doses, p<0.001): Statistically significant increases | lower benchmark dose (BMDL50) ([2]; male rats): 27.31 mg/kg/day | liver histopathological examination ([2]; some male animals, 75 mg/kg/day): Increased hepatocellular mitotic figures | decrease in immobility time ([3]; 7.5 mg/kg ip): 40% | decrease in immobility time ([3]; 15 mg/kg ip): 60% | extent of effect on immobility time ([3]; 15 mg/kg ip, single acute dose): 42 % of control | antidepressant-like effect, continuous 7-day treatment vs single dose ([3]; same dose levels): stronger antidepressant-like effect than a single acute dose | Dose normalized AUC0-inf ([4]; Day 1, female rats, 2 mg/kg oral): 29.0 (ng*h/ml)/(mg/kg) | Dose normalized AUC0-inf ([4]; Day 1, female rats, 10 mg/kg oral): 44.0 (ng*h/ml)/(mg/kg) | Dose normalized AUC0-inf ([4]; Day 1, female rats, 20 mg/kg oral): 49.8 (ng*h/ml)/(mg/kg) | Dose normalized AUC0-inf ([4]; Day 1, male rats, 6 mg/kg oral): 17.2 (ng*h/ml)/(mg/kg) | Dose normalized AUC0-inf ([4]; Day 1, male rats, 10 mg/kg oral): 18.1 (ng*h/ml)/(mg/kg) | Dose normalized AUC0-inf ([4]; Day 1, male rats, 30 mg/kg oral): 19.5 (ng*h/ml)/(mg/kg) | Dose normalized AUC0-t ([4]; Day 28, female rats, 2 mg/kg oral): 31.0 (ng*h/ml)/(mg/kg) | Dose normalized AUC0-t ([4]; Day 28, female rats, 10 mg/kg oral): 51.3 (ng*h/ml)/(mg/kg) | Dose normalized AUC0-t ([4]; Day 28, female rats, 20 mg/kg oral): 53.2 (ng*h/ml)/(mg/kg) | Dose normalized AUC0-t ([4]; Day 28, male rats, 6 mg/kg oral): 10.2 (ng*h/ml)/(mg/kg) | Dose normalized AUC0-t ([4]; Day 28, male rats, 10 mg/kg oral): 17.9 (ng*h/ml)/(mg/kg) | Dose normalized AUC0-t ([4]; Day 28, male rats, 30 mg/kg oral): 19.2 (ng*h/ml)/(mg/kg) | sex difference in exposure ([4]; after normalization for dose level differences): males had lower exposures than females | AUC(0-inf) ([4]; female, 2 mg/kg): 58 ng·h/mL | AUC(0-t) [4, 5]: 57 ng·h/mL | AUC(0-t) [4, 6]: 62 ng·h/mL | Cmax [4, 5]: 67.2 ng/mL | Cmax [4, 6]: 133 ng/mL | half-life ([4]; female, 2 mg/kg, t1/2, Day 1, female rats, 2 mg/kg oral): 30 min | Tmax [4, 5]: 10.2 min | Tmax [4, 6]: 10.2 min | AUC(0-inf) ([4]; female, 10 mg/kg): 440 ng·h/mL | AUC(0-t) [4, 7]: 418 ng·h/mL | AUC(0-t) [4, 8]: 514 ng·h/mL | Cmax [4, 7]: 295 ng/mL | Cmax [4, 8]: 768 ng/mL | half-life ([4]; female, 10 mg/kg, t1/2, Day 1, female rats, 10 mg/kg oral): 42 min | half-life ([4]; female, 10 mg/kg, t1/2, Day 28, female rats, 10 mg/kg oral): 24 min | Tmax [4, 7]: 10.2 min | Tmax [4, 8]: 10.2 min | AUC(0-inf) ([4]; female, 20 mg/kg): 995 ng·h/mL | AUC(0-t) [4, 9]: 993 ng·h/mL | AUC(0-t) [4, 10]: 1060 ng·h/mL | Cmax [4, 9]: 672 ng/mL | Cmax [4, 10]: 1450 ng/mL | half-life ([4]; female, 20 mg/kg, t1/2, Day 1, female rats, 20 mg/kg oral): 54 min | half-life ([4]; female, 20 mg/kg, t1/2, Day 28, female rats, 20 mg/kg oral): 36 min | Tmax [4, 9]: 10.2 min | Tmax [4, 10]: 10.2 min | Cmax Day 28 vs Day 1 ([4]; females): higher on Day 28 | exposure increase with dose ([4]; females, 2 to 20 mg/kg/day): slightly greater than dose-proportional | AUC(0-inf) ([4]; male, 6 mg/kg): 103 ng·h/mL | AUC(0-t) [4, 11]: 99 ng·h/mL | AUC(0-t) [4, 12]: 61 ng·h/mL | Cmax [4, 11]: 109 ng/mL | Cmax [4, 12]: 113 ng/mL | half-life ([4]; male, 6 mg/kg, t1/2, Day 1, male rats, 6 mg/kg oral): 48 min | half-life ([4]; male, 6 mg/kg, t1/2, Day 28, male rats, 6 mg/kg oral): 36 min | Tmax [4, 11]: 10.2 min | Tmax [4, 12]: 10.2 min | AUC(0-inf) ([4]; male, 10 mg/kg): 181 ng·h/mL | AUC(0-t) [4, 13]: 175 ng·h/mL | AUC(0-t) [4, 14]: 179 ng·h/mL | Cmax [4, 13]: 179 ng/mL | Cmax [4, 14]: 211 ng/mL | half-life ([4]; male, 10 mg/kg, t1/2, Day 1, male rats, 10 mg/kg oral): 42 min | half-life ([4]; male, 10 mg/kg, t1/2, Day 28, male rats, 10 mg/kg oral): 36 min | Tmax [4, 13]: 10.2 min | Tmax [4, 14]: 10.2 min | AUC(0-inf) ([4]; male, 30 mg/kg): 585 ng·h/mL | AUC(0-t) [4, 15]: 580 ng·h/mL | AUC(0-t) [4, 16]: 575 ng·h/mL | Cmax [4, 15]: 296 ng/mL | Cmax [4, 16]: 398 ng/mL | half-life ([4]; male, 30 mg/kg, t1/2, Day 1, male rats, 30 mg/kg oral): 72 min | half-life ([4]; male, 30 mg/kg, t1/2, Day 28, male rats, 30 mg/kg oral): 90 min | Tmax [4, 15]: 10.2 min | Tmax [4, 16]: 30 min | exposure increase with dose ([4]; males, 6 to 30 mg/kg/day): generally dose-proportional
